Our source for the IC50 and melting point values is paper PMC5735336, “Microwave-assisted synthesis and antitumor evaluation of a new series of thiazolylcoumarin derivatives” (EXCLI Journal, 2017).

Data set [1] concerns cervical (Hela) cancer cell line. The data set is described as follows: In vitro antitumor screening, MTT assay, Hela. The class given is cell-based. To be noted: Homo sapiens, 50% inhibition of cell viability. As for the experimental part:
(§1) The new analogs were tested for in vitro antitumor efficacy adopting the reported procedure (Mosmann, 1983[46]; Denizot and Lang, 1986[13]; Gerlier and Thomasset, 1986[21]).
(§2) In vitro antitumor screening of compounds 5a-t was carried out on cervical (Hela) and kidney fibroblast (COS-7) cancer cell lines in accord to MTT assay (Mosmann, 1983[46]; Denizot and Lang, 1986[13]; Gerlier and Thomasset, 1986[21]) and utilizing doxorubicin as a standard drug. The concentrations of the compounds that cause 50% inhibition of cell viability (IC50, µM) were calculated. […]
In vitro antitumor screening
Compounds 5a-t were screened for in vitro antitumor activity against HepG2 (liver), HCT-116 (colon) and MCF-7 (breast) cancer cell lines adopting MTT assa y (Mosmann, 1983; Denizot and Lang, 1986; Gerlier and Thomasset, 1986) and usin g 5- fluorouracil as a reference antitumor agent. Cells were cultured in Roswell Park Memorial Institute (RPM I) 1640 medium wit h 10% fetal bovine serum, penicillin (100 units/mL) and streptomycin (100 µg/mL) at 37 ° C in an atmosphere of 5% CO 2 were added.
(§3) Cells were placed in 96-multiwell microtiter plates (10^4 cells/well), for 24 h rs at 37 °C and in an atmosphere of 5% CO2 before tr eatment with the compounds to allow attachment of the cells to the wall of the plate. The tested compounds were dissolved in DMSO and diluted with phosphate buffer saline (PBS) to obtain different concentrations. Tested compounds of dif-ferent concentrations were added to each well and cells were incubated with the compounds for 48 hrs at 37 °C and in an atmosphere of 5% CO2. All tests were performed in triplicates.
(§4) The treated cells were wash ed with PBS and 100 µL of 3 -(4,5-dimeth ylthiazol-2-yl )-2,5-diphe-n yltetrazolium bromide solution (MTT) (5 mg/m L MTT st ock in PBS diluted to 1 mg/ mL with 10% RPMI-1640 medium) was added. The 9 6 -multiwell plates were read b y microarra y read er Perkinelmer vector 3V multilabel counter model 1420 (Perkinelmer, Boston, MA) for optical densit y at 490 nm (Mosmann, 1983; Denizot and Lang, 1986; Gerlier and Thomasset, 1986).
(§5) The relative percenta ge cell viabilit y was calculate d from the following equation: […]
(§6) The relation between surviving fraction and drug concentration is plotted to get the survival curve for HepG2, HCT-116 and M CF-7 cancer cell lines . […]
(§7) Denizot F, Lang R. Rapid colorimetric assa y for cell growth and survival. Modifications to the tetrazolium dye procedure giving improved sensitivity an d reliability. J Immunol Methods. 1986;89:271-7.
(§8) Gerlier D, Thomasset T. Use of MTT colorimetric assa y to measure cell activation. J Immunol Methods. 1986; […]
(§9) Mosmann T. Rapid colorimetric assa y for cellular growth and survival: Application to proliferation and cytotox- […]
(§10) Oberling C, Gu erin M. The role of viruses in the production of cancer . Ad v Cancer Res. 1954;2:353-423.
(§11) Sheeja KR, Kuttan G, Kuttan R. C ytotox ic and antitumour activit y of Berberin. Amala Res Bull. 1997;17:73-6.
For orientation: Tetrazolium assays rely on reduction of a dye to a coloured formazan, in cell work by metabolically active cells.

The test system of data set [2] is kidney fibroblast (COS-7) cancer cell line. The data set is described as follows: In vitro antitumor screening, MTT assay, COS-7. The class given is cell-based. To be noted: Chlorocebus aethiops, 50% inhibition of cell viability, COS-7 cell line. As for the experimental part:
as §1, §2
In vitro antitumor screening […]
HCT-116 (colon) and MCF-7 (breast) cancer cell lines adopting MTT assa y (Mosmann, 1983; Denizot and Lang, 1986; Gerlier and Thomasset, 1986) and usin g 5- fluorouracil as a reference antitumor agent. Cells were cultured in Roswell Park Memorial Institute (RPM I) 1640 medium wit h 10% fetal bovine serum, penicillin (100 units/mL) and streptomycin (100 µg/mL) at 37 ° C in an atmosphere of 5% CO 2 were added.
as §3, §4, §5, §6, §7, §8, §9, §10, §11

pIC50: −log10 of the molar value.

On to `O=c1oc2ccccc2cc1-c1csc(NN=Cc2ccccc2Br)n1` [5a, 3-(2-(2-(2-Bromobenzylidene)hydrazino)thiazol-4-yl)-2H-chromen-2-one], for which the melting point (commonly the temperature, or range, at which the solid turns liquid) was in the range of 212 to 213 °C. Further, the pIC50 (usually the negative decadic logarithm of the IC50, by convention in mol/L) in data set [1] was < 4.30. The pIC50 in data set [2] was < 4.30.
With `N#Cc1ccccc1C=NNc1nc(-c2cc3ccccc3oc2=O)cs1` [5b, 3-(2-(2-(2-Cyanobenzylidene)hydrazino)thiazol-4-yl)-2H-chromen-2-one], the melting point is 219 to 220 °C. The pIC50 in data set [1] is < 4.30. Moreover, in data set [2], the pIC50 was < 4.30.
The compound `N#Cc1cccc(C=NNc2nc(-c3cc4ccccc4oc3=O)cs2)c1` [5c, 3-(2-(2-(3-Cyanobenzylidene)hydrazino)thiazol-4-yl)-2H-chromen-2-one] returned a melting point of 224 to 225 °C. Moreover, the negative logarithm of the IC50 (pIC50) in data set [1] was < 4.30. Moreover, in data set [2], the negative-log IC50 (pIC50) was < 4.30.
Consider `O=c1oc2ccccc2cc1-c1csc(NN=Cc2ccc(C(F)(F)F)cc2)n1` [5d, 3-(2-(2-(4-(Trifluoromethyl)benzylidene)hydrazino)thiazol-4-yl)-2H-chromen-2-one], for which the melting point lay within 189 to 190 °C. Also, in data set [1], the negative-log IC50 (pIC50) is < 4.30. In data set [2], the negative-log IC50 (pIC50) is < 4.30.
The compound `Cc1cccc(C=NNc2nc(-c3cc4ccccc4oc3=O)cs2)c1` [5e, 3-(2-(2-(3-Methylbenzylidene)hydrazino)thiazol-4-yl)-2H-chromen-2-one] gave a melting point of 190 to 191 °C. Besides, the pIC50 in data set [1] is < 4.30. Also, the pIC50 in data set [2] was < 4.30.
As to `O=c1oc2ccccc2cc1-c1csc(NN=Cc2c(F)cccc2Cl)n1` [5g, 3-(2-(2-(2-Chloro-6-fluorobenzylidene)hydrazino)thiazol-4-yl)-2H-chromen-2-one], the melting point fell in the range of 195 to 196 °C. Further, the negative logarithm of the IC50 (pIC50) in data set [1] was < 4.30. Further, the negative logarithm of the IC50 (pIC50) in data set [2] is < 4.30.
`O=c1oc2ccccc2cc1-c1csc(NN=Cc2ccc(O)c(Br)c2)n1` [5i, 3-(2-(2-(3-Bromo-4-hydroxybenzylidene)hydrazino)thiazol-4-yl)-2H-chromen-2-one] had a melting point of 182 to 184 °C. For the same compound, the pIC50 in data set [1] is < 4.30. Besides, in data set [2], the pIC50 is < 4.30.
Regarding `Cc1ccc(O)c(C=NNc2nc(-c3cc4ccccc4oc3=O)cs2)c1` [5j, 3-(2-(2-(2-Hydroxy-5-methylbenzylidene)hydrazino)thiazol-4-yl)-2H-chromen-2-one], the melting point lay in the range of 206 to 207 °C. The negative-log IC50 (pIC50) in data set [1] was < 4.30. Besides, the negative-log IC50 (pIC50) in data set [2] was < 4.30.
In turn, `Cc1cc(C=NNc2nc(-c3cc4ccccc4oc3=O)cs2)ccc1O` [5k, 3-(2-(2-(4-Hydroxy-3-methylbenzylidene)-hydrazino)thiazol-4-yl)-2H-chromen-2-one] came in with a melting point of 193 to 194 °C. Also, the pIC50 in data set [1] is < 4.30. Also, the pIC50 in data set [2] is < 4.30.
Take `COc1ccc(C=NNc2nc(-c3cc4ccccc4oc3=O)cs2)c(OC)c1` [5l, 3-(2-(2-(2,4-Dimethoxybenzylidene)-hydrazino)thiazol-4-yl)-2H-chromen-2-one]: the melting point lay in the range of 219 to 220 °C. Moreover, the negative logarithm of the IC50 (pIC50) in data set [1] was < 4.30. Further, the pIC50 in data set [2] is < 4.30.
As to `O=c1oc2ccccc2cc1-c1csc(NN=Cc2ccc(-c3ccccc3)cc2)n1` [5n, 3-(2-(2-((1,1'-Biphenyl)-4-ylmethylidene)-hydrazino)thiazol-4-yl)-2H-chromen-2-one], the melting point fell in the range of 198 to 200 °C. Moreover, in data set [1], the negative logarithm of the IC50 (pIC50) was < 4.30. Moreover, the pIC50 in data set [2] was < 4.30.
Compound `O=c1oc2ccccc2cc1-c1csc(NN=Cc2ccc3ccccc3c2)n1` [5o, 3-(2-(2-(Naphthalen-2-ylmethylidene)hydrazino)thiazol-4-yl)-2H-chromen-2-one] yielded a melting point of 225 to 227 °C. Moreover, the pIC50 in data set [1] is < 4.30. The pIC50 in data set [2] was < 4.30.
`O=c1oc2ccccc2cc1-c1csc(NN=Cc2ccc3ccccc3c2[N+](=O)[O-])n1` [5p, 3-(2-(2-((1-Nitronaphthalen-2-yl)methylidene)hydrazino)thiazol-4-yl)-2H-chromen-2-one] returned a melting point of 211 to 213 °C. In data set [1], the pIC50 is < 4.30. Further, the pIC50 in data set [2] is < 4.30.
`O=c1ccc2cc(C=NNc3nc(-c4cc5ccccc5oc4=O)cs3)ccc2o1` [5q, 6-((2-(4-(2-Oxo-2H-chromen-3-yl)thiazol-2-yl)hydrazono)methyl)-2H-chromen-2-one] had a melting point of 181 to 183 °C. Moreover, the pIC50 in data set [1] was < 4.30. For the same compound, the negative logarithm of the IC50 (pIC50) in data set [2] is < 4.30.
With `O=c1oc2ccccc2cc1-c1csc(NN=Cc2cc3ccccc3c3ccccc23)n1` [5s, 3-(2-(2-(Phenanthren-9-ylmethylidene)-hydrazino)thiazol-4-yl)-2H-chromen-2-one], the melting point fell in the range of 245 to 247 °C. Besides, in data set [1], the negative-log IC50 (pIC50) was < 4.30. In addition, the negative-log IC50 (pIC50) in data set [2] was < 4.30.
In turn, `O=c1oc2ccccc2cc1-c1csc(NN=Cc2cc3ccc4cccc5ccc(c2)c3c45)n1` [5t, 3-(2-(2-(Pyren-2-ylmethylidene)hydrazino)thiazol-4-yl)-2H-chromen-2-one] registered a melting point of 237 to 239 °C. Also, in data set [1], the pIC50 was < 4.30. Moreover, in data set [2], the negative-log IC50 (pIC50) was < 4.30.
Regarding `COc1cccc2c1C(=O)c1c(O)c3c(c(O)c1C2=O)C[C@@](O)(C(=O)CO)C[C@@H]3O[C@H]1C[C@H](N)[C@H](O)[C@H](C)O1` [Doxorubicin, doxorubicin, reference compound], the pIC50 in data set [1] is 5.69; in data set [2], 5.52.
